Here are results for 2 molecules from US12378247B2, “Mesylate salt of para-topolin, compositions containing said salt and use thereof” (USTAV EXPERIMENTALNI BOTANIKY AV CR, V. V. I., priority 2020, dated 2025).

In general, IC50 refers to the concentration at which inhibition is half-maximal.

A short description of data set [1]: Stability study by XRPD diffraction. Conditions: 25° C., on light, after 30 days. The format is physicochemical. The protocol: X-ray powder diffraction studies were performed on a Bruker D8 Advance ECO diffractometer with Cu K-alpha radiation and SSD160 detector. Approximately 5 mg of sample was gently compressed on the XRPD sample holder. The sample was then loaded into a Bruker D8-Discover diffractometer in transmission mode and analyzed using the experimental conditions shown below: XRPD measurement conditions
Sample stability was tested at 25° C. for […] on light. […] XRPD of samples were taken after 30 days to investigate any solid form change (any difractogram/pattern change).

A short description of data set [2]: Calcein AM cytotoxicity assay, MCF7. Conditions: human, MCF-7 cells (breast adenocarcinoma); MCF7, 3-day Calcein-AM assay; read-out: Cytotoxic activity IC50. The format is cell-based. The source says:
(§1) Because toxic compounds negatively influence metabolic processes of cells, many standard cytotoxicity assays are based on measurement of metabolisation rate of various artificial substrates. Resulting product is then quantified, for example, by means of spectrometry. The assays can be easily modified for use in 96-well plates. For evaluation of cytotoxicity of the […] of this invention, a microtiter assay based on quantification of metabolisation of Calcein AM was used. The assay is widely used in drug screening programs and in chemosensitivity testing. In live cells, Calcein AM is enzymatically hydrolysed and accumulation of the resulting calcein is manifested by green fluorescence. […]
(§2) Approximately 10,000 cells in 80 μL of medium were seeded into 96-well microtitre plates. […] The fluorescence of free calcein was then quantified using a Fluoroscan Ascent fluorometer (Microsystems), and the percentage of surviving cells in each well was calculated by dividing the OD obtained from each cell with exposed cells by the mean OD obtained from control wells×100%. […]

Data set [3] is described as follows: Calcein AM cytotoxicity assay, HOS. The format is cell-based, human. The settings on record: human, HOS cells (osteosarcoma), 3-day Calcein-AM assay, read-out: Cytotoxic activity IC50.
Source text: as §1, §2

Data set [4] in a line: Calcein AM cytotoxicity assay, HL60. The format is cell-based. The settings on record: human, HL-60 cells (promyelocytic leukaemia); HL60, 3-day Calcein-AM assay; read-out: Cytotoxic activity IC50.
Source text: as §1, §2

Data set [5] can be described thus: Pharmacokinetics / bioavailability upon intraduodenal administration in rats. The settings on record: rat. The format is in vivo, male Sprague-Dawley rats. The protocol:
Preparation of Dosing Solutions for In-Vivo Study: Para-topolin and para-topolin mesylate salt were stored at room temperature under desiccant and protected from light. The dosing solutions were prepared fresh from powders on the day of dosing. The dosing solution for intravenous administration (IV) was prepared at 1 mg/mL (free acid) in 50:50 DMSO: saline. The dosing solution for intraduodenal administration (ID) was prepared at 2 mg/mL in a 0.2% sodium carboxymethyl cellulose (Na CMC) aqueous solution.
Administration to Animals: The pharmacokinetics of para-topolin base and mesylate was evaluated in fasted male Sprague-Dawley rats. […]
Each blood sample was collected from the rats via a jugular vein cannula and placed into chilled polypropylene tubes containing sodium heparin as an anticoagulant. […] The total concentration of para-topolin in plasma samples were analyzed by LC-MS/MS after an overnight incubation with glucuronidase/arylsulfatase enzyme mixture. Pharmacokinetic parameters were calculated using the WinNonlin software.
Analysis of Plasma Samples: An LC-MS/MS analytical method for the determination of […] in rat plasma was developed (Novák et al., Phytochemistry, 69, 2008:2214-2224). Prior to sample analysis, a standard curve was analyzed to determine the specificity, range, and linearity of the method. […]

The test system of data set [6] is MCF-7 (breast adenocarcinoma). As to the kind of experiment: Calcein AM cytotoxicity assay, MCF7. Conditions: MCF7, 3-day Calcein-AM assay; read-out: Cytotoxic activity IC50. The format is cell-based.
Source text: as §1, §2

For a further data set, the system named is HOS (human osteosarcoma). As to the kind of experiment: Calcein AM cytotoxicity assay, HOS. The format is cell-based. The settings on record: 3-day Calcein-AM assay, read-out: Cytotoxic activity IC50.
Source text: as §1, §2

Structures can show the parent of a compound that is named as a salt.

In the case of `Oc1ccc(CNc2ncnc3nc[nH]c23)cc1` [para-topolin mesylate, 6-(4-hydroxybenzylamino) purine (para-topolin) mesylate (methylsulphonate)], the “Solid-state stability (structure, color, XRPD pattern change)” value is listed as “No structure nor color change” in data set [1] (listed as crystalline para-topolin mesylate salt) and “no structural pattern changes detected” in data set [1] (listed as para-topolin mesylate crystalline salt). Besides, the IC50 at 72 h in data set [2], in data set [3] and in data set [4] was above 167 µM throughout. For the same molecule, in data set [5], the “time after ID dosing at which Cmax was observed” value was at most 15 min.
On to `Oc1ccc(CNc2ncnc3nc[nH]c23)cc1` [para-topolin, 6-(4-Hydroxybenzylamino) purine], for which the IC50 (in data set [6]; with HOS (human osteosarcoma)) was above 167 µM throughout.
